# Measured values published in patent publication US8673977B2, “Choline salts of succinic acid for the treatment of depression, anxiety, schizophrenia, sleep disorder, and epilepsy” (priority 2008, dated 2014).
# Like-named read-outs stand apart in the source and are kept apart here.
# Assays:
# [1] = test system: young male CD1 mice; conditions: mean±SEM, scored during 6 min
# Experimental: (A) In the forced swim test, young male CD1 mice, singly housed, were used. Mice were treated i.p. with saline (control) or 25 mg/kg compounds (I) or (II) for 7 days once-a-day and tested at 8th day. In the reference group, mice were treated i.p. with 10 mg/kg Imipramine 30 min prior the swimming test. Forced swim test was done in a glass cylinder 17 cm diameter, water height 13 cm (7 cm to the edge of a cylinder) filled with water at ambient temperature. Animals were scored during 6 min. The latency of the first floating episode was accepted as a measure of forced swim behavior. Statistical analysis was done using ANOVA and Mann-Whitney test as a post-hoc analysis.
# [2] = test system: young male CD1 mice; conditions: mean±SEM, n=20
# Experimental: (B) In the chronic stress depression model, young male CD1 mice, singly housed, were used. […] Stress procedure was used for 10 days. In the reference group, mice received Imipramine orally 8 mg/kg per day for 7 days prior the stress and then in a course on entire 10-days-stress-procedure. Animals (n=20 per group) were tested on a sucrose preference at 10th day of the stress procedure. Statistical analysis was done using ANOVA and Mann-Whitney test as a post-hoc analysis. Data are presented in Table 2 as mean±SEM of a percentage of sucrose preference.
# [3] = test system: mice with seizures induced by pentylenetetrazol; conditions: i.p. 10 mg/kg for 7 days once-a-day, pentylenetetrazol administered
# Experimental: Effect of the treatment of epilepsy with compounds of the invention was assessed in mice with seizures induced by pentylenetetrazol. Loscher et al., Epilepsy Res 1991, 8:171-189. Mice were treated for 7 days once-a-day with i.p. 10 mg/kg compound II or saline (control). Pentylenetetrazol was administered.
# [4] = test system: Rats; conditions: rats pretreated i.p. 25 mg/kg for 7 days once-a-day; at day 8, 10 mg/kg caffeine
# Experimental: Effect of the treatment of sleep disorder (insomnia) with compound II of the present invention was assessed in caffeine-induced model of insomnia. Rats were treated for 7 days once-a-day with i.p. 25 mg/kg compound II or saline (control).
# [5] = test system: Stressed mice; conditions: mean±SEM; stressed mice from Example 2 (i.p. 25 mg/kg for 7 days prior stress); scored during 5 min
# Experimental: (B) In the chronic stress depression model, young male CD1 mice, singly housed, were used. […] Stress procedure was used for 10 days.
# Effect of the treatment of anxiety with compounds of the invention was assessed in rodents in light/dark transition test. Stressed mice from the Example 2 were tested in a dark/light box as described by Crawley et al., Pharmacol Biochem Behav 13, 167-70 (1980). Animals were scored during 5 min for (i) total time spent in light box and (ii) number of exits. […] Data are presented in Table 3 as mean±SEM of (i) total time spent in light box and (ii) number of exits.
# [6] = test system: rats raised in social isolation (ISO); conditions: mean±SEM; socially isolated rats, i.p. 25 mg/kg for 7 days once-a-day; 80 dB prepulse, 110 dB pulse, prepulse latency 100 milliseconds
# Experimental: Rats were treated for 7 days once-a-day with i.p. 25 mg/kg compound II or saline (control).
# [7] = i.p. 25 mg/kg for 7 days once-a-day, tested at 8th day
Structure (SMILES),"Latency of the first floating episode [1, 7] [s]","Sucrose preference ([2]; reference group, orally 8 mg/kg per day for 7 days prior the stress and during 10-days stress, tested at 10th day) [%]","Latency of the first floating episode ([1]; reference group, i.p. 10 mg/kg 30 min prior the swimming test) [s]",seizures as compared to control [3],sleep onset latency (SOL) after caffeine as compared to vehicle [4],"Sucrose preference ([2]; i.p. 25 mg/kg for 7 days once-a-day prior the onset of stress, tested at 10th day of stress) [%]",Number of exits [5],Time (total time spent in light box) [5] [s],Prepulse inhibition [6] [%]
"C[N+](C)(C)CCO.O=C([O-])CCC(=O)O [Compound (I), monocholine salt of succinic acid]",117 ± 18,–,–,–,–,–,–,–,–
"CN(C)CCCN1c2ccccc2CCc2ccccc21 [Imipramine, reference compound]",–,75 ± 4,60 ± 26,–,–,–,–,–,–
"C[N+](C)(C)CCO.C[N+](C)(C)CCO.O=C([O-])CCC(=O)[O-] [Compound (II), dicholine salt of succinic acid]",140 ± 11,–,–,significantly decreases seizures,caffeine did not prolonged SOL,72 ± 3,4.8 ± 0.6,250 ± 11,51 ± 9
